The nature of the series: Plasma lipids in ApoE−/− mice. It counts as in vivo, mouse. The following applies: 13 weeks, mean±SE. The text has this:
All experiments related to animals were approved by the institutional animal care and use committee of Peking University and followed the guidelines for animal experiments of the university as well as for experimental animals in China. The biological effect size of the animal experiments was based on the previous paper ([Negro Silva et al. 2017]). C57BL/6 (12 weeks old) and ApoE^−/− mice (12 weeks old) were obtained from the Beijing Vital River Laboratory Animal Technology Company. Mice used in the experiments were acclimated to the housing unit 2 weeks before they were used for experiments, and they were randomly assigned to control or TPHP treatment groups. Five animals were housed to a cage, and mice were acclimatized to the controlled environment (temperature: 22±2°C; relative humidity: 40–60%; artificial lighting: 12 h:12 h light/dark). Mice received diet and drinking water ad libitum. Body weight (BW) was measured every week during the dosing period. Forty-five C57BL/6 mice and 27 ApoE^−/− mice were used in this study. Animal protocol 1: Male C57BL/6 mice (five mice per group) were fed a basic diet (Laboratory Animal Center of the Academy of Military Medical Sciences, China). On Day 0, mice were stimulated with paraffin oil by intraperitoneal injection. From Day 1 to Day 7, mice were exposed to corn oil (control) or TPHP (dissolved in corn oil) at 40 or 200mg/kg BW by daily oral gavage. The volume of the corn oil or TPHP in corn oil administered was 5mL/kg BW. On Day 8, after the mice were anesthetized by sodium pentobarbital via intramuscular injection, peritoneal macrophages were harvested from peritoneal lavage with 4mL pre-warmed DMEM-F12 (containing 10% FBS) using a 25-gauge needle; 5–10 min later, 3–3.5mL peritoneal fluid was collected, and the cells were isolated by centrifuge at 1,000 rpm for 5 min. The isolated cells were cultured in DMEM-F12 containing 10% FBS. After 4 h, the medium was changed, and the cells were cultured overnight. The cells were then used for the qRT-PCR, cellular cholesterol efflux assay, and foam cell formation experiment. The exposure period used in the present study was based on previous studies, in which peritoneal macrophages were harvested from mice treated with chemicals for 4–14 d ([Li et al. 2009]; [Saeed et al. 2012]). Considering that this study assessed the effects of short-term exposure to TPHP, whereas humans are exposed to TPHP over a lifelong period, the present study used exposure doses that were higher than that of human exposure from house dust. Animal protocol 2: Because wild-type mice are highly resistant to atherosclerosis, a well-established atherosclerosis model, the ApoE^−/− mouse, was used in the study. The male ApoE^−/− mice (nine mice per group) were fed a high-fat diet (D12108C; Research Diets Inc.) and exposed to corn oil (control) or TPHP (dissolved in corn oil) at 10 or 40mg/kg BW for 13 weeks by oral gavage. Mice were sacrificed 24 h after the last day of exposure with an overdose of sodium pentobarbital via intraperitoneal injection. Because the formation of atherosclerosis lesions required a long time, the exposure period used in the present study was based on previous studies in which the effects of chemicals on formation of atherosclerosis lesions were observed after an exposure period of 12–15 weeks ([Li et al. 2009]; [Negro Silva et al. 2017]; [Shi et al. 2016]). The doses of TPHP used in the ApoE^−/− model mouse referred to previous studies in which mice were treated with TPHP at 50–300mg/kg BW to observe significant adverse effects, including decreased testosterone levels and hypertriglyceridemia ([Chen et al. 2015]; [Morris et al. 2014]).
Treated ApoE^−/− mice ( n=9 per group) were fasted overnight, and heart puncture was used to collect the blood soon after each animal was sacrificed. The blood samples were then centrifuged ( 1,000×g , 10 min, 4°C) to separate the plasma, and the plasma was stored at −80°C . […]

[1] abbreviates: 40mg/kg, n=9, p<0.05 vs control.

Consider one compound from PMC6927504, “Screening of House Dust from Chinese Homes for Chemicals with Liver X Receptors Binding Activities and Characterization of Atherosclerotic Activity Using an in Vitro Macrophage Cell Line and ApoE^−/− Mice” (Environmental Health Perspectives, 2019).

In the case of `O=P(Oc1ccccc1)(Oc1ccccc1)Oc1ccccc1` [TPHP, triphenyl phosphate], for the setting “10mg/kg, n=9”, the “Plasma HDL-C” value came out at 1.13 ± 0.05 mmol/L, the “Plasma LDL-C” value is 10.53 ± 0.32 mmol/L, the Plasma cholesterol came out at 26.15 ± 1.34 mmol/L and the Plasma triglycerides is 0.92 ± 0.06 mmol/L. Also, for the setting “40mg/kg, n=9”, the “Plasma HDL-C” value stood at 1.29 ± 0.05 mmol/L and the “Plasma LDL-C” value turned out to be 10.27 ± 0.22 mmol/L. Besides, under setting [1], the Plasma cholesterol worked out at 28.83 ± 1.90 mmol/L and the Plasma triglycerides was determined as 1.06 ± 0.12 mmol/L.
